The target in one assay is δ opioid receptors (Rattus norvegicus, UniProt P33533). The assay is described as follows: Opiate Binding Assay, displacement of 3[H]-DSLET (δ receptor). The note with it: for Mean IC50 μ/δ Ratio: ratio of mean IC50 values for μ and δ opioid receptors.
The target in a further assay is μ opioid receptors (Rattus norvegicus, UniProt P33535). The assay is described as follows: Opiate Binding Assay, displacement of 3[H]-DAMGO (μ receptor).
For another assay, the system named is mice. The assay is described as follows: Phenylbenzoquinone (PBQ) Writhing Assay. The conditions noted are these: for PBQ WRITHING ASSAY ED50 (mpk) I.G. / ED50: 30 min before PBQ; for ED50: Mus musculus, 0.5 h. The class given is in vivo, mouse (Charles River male albino mice). An excerpt:
The Writhing Assay is one of the most widely-used experimental procedures for measuring the analgesic activity of different narcotic and nonnarcotic analgesic agents, and involves the continuous, chemically-induced pain of visceral origin to an animal, such as a mouse or rat. [Gyires et al., Arch. int. Pharmacodyn, 267, 131-140 (1984); C. Vander Wende et al., Fed. Proc., 15, 494 (1956); Koster et al., Fed. Proc., 18, 412 (1959); and Witken et al., J. PharmacoI. exp. Tger., 133, 400-408 (1961).] Chemicals which may be used to induce this pain include phenylbenzoquinone (PBQ) and acetic acid. As a result of the chemical irritation to the animal, a characteristic stretching and writhing of the animal (dorsiflexion of the animal's back, extension of its hindlimbs and the strong contraction of its abdominal musculature) will generally occur. […] Drugs which reduce the number of writhes of the animal appear to restore the normal nociceptive threshold of the animal.
Charles River male albino mice, weighing 20 to 30 grams were used in this assay.
Thirty minutes after subcutaneous or intragastric administration to ten mice of either 10 mg or 30 mg per kilogram of body weight of a compound of the present invention ("test compound"), […] of body weight of a 0.025% w/v solution of PBQ was injected intraperitoneally into each mouse. Ten mice which were given saline in place of a test compound of the invention were used as a control group.
Five minutes later, each mouse was individually placed into a glass beaker for observation, and the number of writhes occurring during the following ten-minute period was counted.
A test compound was considered to be "active" in this assay (to have produced analgesia in a mouse) if, after the administration of the compound to the mouse, the number of writhes elicited by a mouse injected with PBQ was equal to, or less than, one-half the median number of writhes recorded for the saline-treated control group of mice that day, as described by Taber in "Predictive Value of Analgesic Assays in Mice and Rats," Advances in Biochemical Psychopharmacology, 8, 191 (1974).
The standard initial screening doses of a test compound employed in this assay were 10 and/or 30 […] for both routes of administration.

Where [1] appears, read: subcutaneous, screening doses 10 and/or 30 mpk.
The mark [2] stands for this setting: po, intragastric, read-out: PBQ WRITHING ASSAY ED50 (mpk) I.G.
The mark [3] stands for this setting: sc, subcutaneous, read-out: PBQ WRITHING ASSAY ED50 (mpk) S.C.

Where a name gives a salt, the structure may show the parent alone. Read-outs that look alike come from different tables or passages of the source.

Chain of δ opioid receptors (P33533 whole entry): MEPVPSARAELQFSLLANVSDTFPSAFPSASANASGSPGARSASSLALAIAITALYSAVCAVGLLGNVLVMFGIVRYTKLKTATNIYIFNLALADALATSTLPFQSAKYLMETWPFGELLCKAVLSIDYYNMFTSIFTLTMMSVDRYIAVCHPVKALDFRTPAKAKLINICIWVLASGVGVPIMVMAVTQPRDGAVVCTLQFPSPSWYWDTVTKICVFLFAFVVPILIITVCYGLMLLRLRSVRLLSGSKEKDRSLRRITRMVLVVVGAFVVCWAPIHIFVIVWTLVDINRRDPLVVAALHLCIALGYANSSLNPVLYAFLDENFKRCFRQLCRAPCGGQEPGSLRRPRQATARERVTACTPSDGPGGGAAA
Chain of μ opioid receptors (P33535 whole entry): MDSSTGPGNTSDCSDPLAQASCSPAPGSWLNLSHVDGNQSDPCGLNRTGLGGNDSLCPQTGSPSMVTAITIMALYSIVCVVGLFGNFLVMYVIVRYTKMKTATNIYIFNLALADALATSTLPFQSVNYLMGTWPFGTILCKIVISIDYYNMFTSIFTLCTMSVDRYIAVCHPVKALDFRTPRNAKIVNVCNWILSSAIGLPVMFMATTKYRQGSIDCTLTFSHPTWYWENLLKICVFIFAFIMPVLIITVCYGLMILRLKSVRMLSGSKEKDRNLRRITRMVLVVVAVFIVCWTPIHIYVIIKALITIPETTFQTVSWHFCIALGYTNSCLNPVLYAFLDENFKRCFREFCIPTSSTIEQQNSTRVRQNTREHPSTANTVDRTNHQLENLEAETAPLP

For the molecule `CN1CC[C@]23c4c5ccc(O)c4O[C@H]2c2[nH]c4c(ccc6ccccc64)c2C[C@@]3(O)[C@H]1C5` [III, 5,6,7,8,16, 16bβ-Hexahydro-7-methyl-4,8(R, α)-methano-4BS^* -benzo[i]benzofuro [2,3-a]pyrido[4,3-b]carbazole-1,8aβ(9H)-diol, monohydrochloride], at δ opioid receptors, the IC50 worked out at 20.8 nM and the “Mean IC50 μ/δ Ratio” value came to 26. The IC50 at μ opioid receptors was found to be 550 nM. Also, the “PBQ WRITHING ASSAY ED50 (mpk) I.G.” value with mice (intragastric) is “inactive”. In addition, in the assay on mice (setting [1]), the “Number of mice in 10 exhibiting inhibition of writhing, S.C.” value was 5/10.

Take `C=CCN1CC[C@]23c4c5ccc(O)c4O[C@H]2c2oc4ccccc4c2C[C@@]3(O)[C@H]1C5` [IX, 6,7,8,14β-Tetrahydro-7-(2-propenyl)-4,8(R,α)-methano-4bS^* -5H-bisbenzofuro[3,2-e:2',3'-g] isoquinoline-1,8aβ(9H)-diol, monohydrochloride]: the IC50 at δ opioid receptors stood at 0.21 nM; on μ opioid receptors, 236 nM. The “Mean IC50 μ/δ Ratio” value at δ opioid receptors is reported as 1100. The ED50 is 3.9 mg/kg with mice (setting [2]) and 2.8 mg/kg in the assay on mice (setting [3]).

In the case of `C=CCN1CC[C@]23c4c5ccc(O)c4O[C@H]2c2[nH]c4ccccc4c2C[C@@]3(O)[C@H]1C5` [VIII, 5,6,7,8,14,14bβ-Hexahydro-7(2-propenyl)-4,8 (R,α)-methano-4bS^* -benzofuro[2,3-a]pyrido[4,3-b] carbazole-1,8aβ(9H)-diol, monohydrochloride], at δ opioid receptors, the IC50 was 1.4 nM and the “Mean IC50 μ/δ Ratio” value is listed as 71. Further, the half-maximal inhibitory concentration (IC50) on μ opioid receptors was 99 nM.

As for `CN1CC[C@]23c4c5ccc(O)c4O[C@H]2c2[nH]c4c(Br)cccc4c2C[C@H]3[C@H]1C5` [XIII, 13-Bromo-5,6,7,8,8a,9,14,14bβ-octahydro-7-methyl-4,8(R,α)-methano-4bS^* -benzofuro [2,3-a]pyrido[4,3-b]carbazol-1-ol, monohydrochloride], on δ opioid receptors, the IC50 is 52 nM and the “Mean IC50 μ/δ Ratio” value stood at 5.1. Also, the IC50 at μ opioid receptors stood at 265 nM. Also, in the assay on mice (intragastric), the “PBQ WRITHING ASSAY ED50 (mpk) I.G.” value was “inactive”. In the assay on mice (setting [1]), the “Number of mice in 10 exhibiting inhibition of writhing, S.C.” value was 4/10.

For `C=CCN1CC[C@]23c4c5ccc(O)c4O[C@H]2c2[nH]c4c(Br)cccc4c2C[C@@]3(O)[C@H]1C5` [X, 13-Bromo-5,6,7,8,14, 14bβ-hexahydro-7-(2-propenyl)-4,8(R,α)-methano-4bS^* -benzofuro [2,3-a]pyrido[4,3-b]carbazole-1,8aβ(9H)-diol monohydrochloride], on δ opioid receptors, the IC50 came out at 11.1 nM and the “Mean IC50 μ/δ Ratio” value is 350. For the same molecule, at μ opioid receptors, the IC50 stood at 3900 nM. Moreover, the “Number of mice in 10 exhibiting inhibition of writhing, I.G.” value in the assay with mice (intragastric, screening doses 10 and/or 30 mpk) is listed as 5/10. In addition, the “Number of mice in 10 exhibiting inhibition of writhing, S.C.” value in the assay with mice (setting [1]) is reported as 5/10.

As to `CN1CC[C@]23c4c5ccc(O)c4O[C@H]2c2oc4ccccc4c2C[C@H]3[C@H]1C5` [XI, 6,7,8,8a,9,14bβ-Hexahydro-7-methyl-4,8(R,α)-methano-4bs^* -5H-bisbenzofuro[3,2-e:2',3'-g] isoquinolin-1-ol, monohydrochloride], on δ opioid receptors, the IC50 is 3.5 nM and the “Mean IC50 μ/δ Ratio” value is 6.9. Also, the IC50 at μ opioid receptors came to 24 nM. In the assay with mice (setting [3]), the ED50 was found to be 2 mg/kg. The “PBQ WRITHING ASSAY ED50 (mpk) I.G.” value in the assay on mice (intragastric) was “inactive”.

On to `CCCN1CC[C@]23c4c5ccc(O)c4O[C@H]2c2oc4ccccc4c2C[C@@]3(O)[C@H]1C5` [XIV, 6,7,8,14bβ-Tetrahydro-7-propyl-4,8(R,α)-methano-4bS^* -5H-bisbenzofuro[3,2-e:2',3'-g] isoquinoline-1,8aβ(9H)-diol, monohydrochloride], for which, at δ opioid receptors, the IC50 was determined as 7.7 nM and the “Mean IC50 μ/δ Ratio” value was 26. In addition, the IC50 at μ opioid receptors came out at 200 nM.

`CC(=O)Oc1ccc2c3c1O[C@H]1c4[nH]c5ccccc5c4C[C@@]4(OC(C)=O)[C@@H](C2)N(C)CC[C@]314` [XVIII, 5,6,7,8,14,14bβ-Hexahydro-7-methyl-4,8(R,α)-methano-4bS^* -benzofuro[2,3-a] pyrido[4,3-b]carbazole-1,8aβ-9H)-diol, diacetate, monohydrochloride]: on δ opioid receptors, the IC50 was found to be 66.4 nM. Moreover, the “Percent Inhibition, mu” value at μ opioid receptors (at 100 nm, rat forebrain membranes, 3[H]-DAMGO) is 72%.

For the molecule `COc1ccc2c3c1O[C@H]1c4oc5ccccc5c4C[C@@]4(OC)[C@@H](C2)N(C)CC[C@]314` [IV, 2 6,7,8,14bβ-Hexahydro-1,8aβ-(9H)-dimethoxy-7-methyl-4,8(R,α)-methano-4bS^* -5H-bisbenzofuro [3,2-e:2',3'-g]isoquinoline], on δ opioid receptors, the IC50 is 43.5 nM and the “Mean IC50 μ/δ Ratio” value came to 446. The molecule further yielded an IC50 at μ opioid receptors of 21200 nM. Also, in the assay with mice (setting [2]), the ED50 was determined as 2.2 mg/kg. Moreover, the “Number of mice in 10 exhibiting inhibition of writhing, S.C.” value in the assay with mice (setting [1]) was 6/10.

Turning to `CN1CC[C@]23c4c5ccc(O)c4O[C@H]2c2[nH]c4ccccc4c2C[C@@]3(O)[C@H]1C5` [I, 5,6,7,8,14,14bβ-Hexahydro-7-methyl-4,8(R,α)-methano-4bS^* -benzofuro[2,3-a]pyrido[4,3-b]carbazole-1, 8aβ(9H)-diol, monohydrochloride], on δ opioid receptors, the IC50 came to 2.6 nM and the “Mean IC50 μ/δ Ratio” value was 58. The IC50 at μ opioid receptors amounted to 152 nM.

Regarding `CN1CC[C@]23c4c5ccc(O)c4O[C@H]2c2[nH]c4ccccc4c2C[C@H]3[C@H]1C5` [XII, 5,6,7,8,8a,9,14, 14bβ-Octahydro-7-methyl-4,8(R,α)-methano-4bS^* -benzofuro[2,3-a] pyrido[4,3-b]carbazol-1-ol, monohydrochloride], on δ opioid receptors, the IC50 came out at 4.9 nM and the “Mean IC50 μ/δ Ratio” value was 11.8. On μ opioid receptors, the IC50 came to 58 nM.

Consider `CN1CC[C@]23c4c5ccc(O)c4O[C@H]2c2[nH]c4c(Br)cc(Br)cc4c2C[C@@]3(O)[C@H]1C5` [VI, 11,13-Dibromo-5,6,7,8,14,14bβ-hexahydro-7-methyl-4,8(R,α)-methano-4bS^* -benzofuro[2,3-a]pyrido[4,3-b] carbazole-1,8aβ(9H)-diol, monohydrochloride], for which the “Percent Inhibition, delta” value on δ opioid receptors (10 nm, rat forebrain membranes, 3[H]-DSLET) is 11%. Besides, in the assay on mice (intragastric), the “PBQ WRITHING ASSAY ED50 (mpk) I.G.” value was “inactive”. Further, in the assay on mice (setting [1]), the “Number of mice in 10 exhibiting inhibition of writhing, S.C.” value is given as 6/10.

As to `CC(=O)Oc1ccc2c3c1O[C@H]1c4[nH]c5ccccc5c4C[C@@]4(O)[C@@H](C2)N(C)CC[C@]314` [XVII, 5,6,7,8,14,14bβ-Hexahydro-7-methyl-4,8 (R,α)-methano-4bS^* -benzofuro[2,3-a] pyrido[4,3-b]carbazole-1,8aβ(9H)-diol, 1-acetate], the IC50 on δ opioid receptors was 34 nM; on μ opioid receptors, 1300 nM. In addition, the “Mean IC50 μ/δ Ratio” value on δ opioid receptors is given as 38.

In the case of `CC(=O)O[C@@]12Cc3c([nH]c4ccccc34)[C@@H]3Oc4c(O)ccc5c4[C@@]31CCN(C)[C@@H]2C5` [XIX, 5,6,7,8,14,14bβ-Hexahydro-7-methyl-4,8(R,α-methano-4bS^* -benzofuro[2,3-a]pyrido[4,3-b]carbazole-1,8aβ-9H)-dio1,8a-acetate monohydrochloride], the IC50 amounted to 1 nM on δ opioid receptors and 769 nM at μ opioid receptors. On δ opioid receptors, the “Mean IC50 μ/δ Ratio” value was 769.

As to `Oc1ccc2c3c1O[C@H]1c4oc5ccccc5c4C[C@@]4(O)[C@@H](C2)N(CC2CCC2)CC[C@]314` [XV, 6,7,8,14bβ-Tetrahydro-7-(cyclobutylmethyl)-4,8 (R,α)-methano-4bS^* -5H-bisbenzofuro [3,2-e:2',3'-g]isoquinoline-1,8aβ(9H)-diol, monohydrochloride], on δ opioid receptors, the IC50 is 5.1 nM and the “Mean IC50 μ/δ Ratio” value is 135. This molecule also showed an IC50 on μ opioid receptors of 690 nM.
